The EC50 is the concentration needed to bring the measured effect to its halfway point. What is called IC50 is the concentration that inhibits the measured activity by half.

Consider 13 molecules from PMC8268581, “Identification of 3,4-Dihydro-2H,6H-pyrimido[1,2-c][1,3]benzothiazin-6-imine Derivatives as Novel Selective Inhibitors of Plasmodium falciparum Dihydroorotate Dehydrogenase” (International Journal of Molecular Sciences, 2021).

Data set [1] is described as follows: Cytotoxicity assay, HDF (Cell Counting Kit-8). The following applies: human dermal fibroblast (HDF) cells, normal human dermal fibroblasts. Format: cell-based. For orientation: Tetrazolium dyes change colour on reduction, which living cells bring about.
A short description of data set [2]: Cytotoxicity assay, PANC-1 (Cell Counting Kit-8). The data set is classed as cell-based. The following applies: PANC-1 human pancreatic carcinoma cells.
Data set [3] deals with mammalian mitochondrial complexes I–III (Bos taurus, UniProt P00157+P03887+P17694+P42026). The experiment in a line: NADH-cytochrome c reductase (complexes I–III) activity assay. The data set is classed as biochemical. Particulars: bovine heart mitochondria, range tested 0.0007 to 22.7 µM; read-out: IC50 Mammalian Mitochondrial CI–III.
Another data set has as its system P. falciparum 3D7. As to the kind of experiment: In vitro antimalarial assay (PfLDH/diaphorase). The data set is classed as cell-based. Particulars: Plasmodium falciparum, growth inhibition, 72 h, 0.0003 to 10 µM, read-out: EC50 Pf3D7.
The subject of data set [4] is P. falciparum 3D7 strain expressing the cytosolic yeast DHODH (3D7-yDHODH). As to the kind of experiment: Confirmation assay against transgenic parasite 3D7-yDHODH. Particulars: for activity at 10 µM: 72 h, relative parasite growth at 10 µM compound, read-out: Growth at 10 µM (%) Pf3D7-yDHODH; for susceptibility of Pf3D7-yDHODH parasite (in words): relative parasite growth at 10 µM, compared with wild-type 3D7. The data set is classed as cell-based, Plasmodium falciparum. Here is the method: Synchronized ring-stage parasites at 0.3% parasitemia and 2% hematocrit were cultured in a 384-well plate at 25 µL with test compounds at a final concentration in the range of 0.0003 to 10 µM with a fixed DMSO concentration of 0.4% (v/v). Parasite growth was monitored by the diaphorase-coupled P. falciparum lactate dehydrogenase (PfLDH) assay, as previously described. After 72 h, 70 µL of the assay solution (150 mM lithium L-lactate (Wako), 0.05 mg/mL 3-acetylpyridine adenine dinucleotide (Oriental Yeast Co., Ltd., Tokyo, Japan), 0.2 mg/mL nitro blue tetrazolium (Wako), 1 unit/mL diaphorase, and 100 mM Tris-HCl pH 8.0) were mixed with the parasite culture and incubated at room temperature for 40 min, and the generated nitro blue formazan was measured at 650 nm using a SpectraMax®® Paradigm®® Multi-Mode Microplate Reader. […] The EC50 was calculated using GraphPad Prism 8.0 software from the mean of quadruplets values.
The P. falciparum 3D7 strain expressing the cytosolic yeast DHODH (3D7-yDHODH) was prepared as follows. pHHyDHODH-GFP plasmid (Kerafast, Boston, MA, USA) was transfected to the P. falciparum 3D7 strain following the established transfection method. Briefly, 50 µg of plasmid dissolved in cytomix solution (120 mM KCl, 0.15 mM CaCl2, 10 mM K2HPO4/KH2PO4 pH 7.6, 25 mM HEPES-KOH pH 7.6, 2 mM ethylene glycol-bis(β-aminoethyl ether)-N,N,N′,N′-tetraacetic acid (EGTA, Dojindo), and 5 mM magnesium chloride (Wako)) was transfected into the red blood cells by the Gene Pulser Xcell (Bio-Rad). Percoll–sorbitol synchronized parasites were mixed with red blood cells containing plasmid and maintained under 5 nM WR99210 for 2 weeks. The growth of resistant parasites against DSM265 and atovaquone, as PfDHODH and complex III inhibitors respectively, was confirmed by PfLDH/diaphorase assay. A total of 10 µM PfDHODH inhibitors were tested against wild-type 3D7 and 3D7-yDHODH following the method described above in triplicate. The significance of difference between the inhibition of the two parasite strains was evaluated by Student’s t-test (Figure S4).

Data set [5] has as its target mammalian mitochondrial complexes II–III (Bos taurus, UniProt P00157+P35720+Q3T189+Q95123). As to the kind of experiment: succinate-cytochrome c reductase (complexes II–III) activity assay. The data set is classed as biochemical. The following applies: bovine heart mitochondria, range tested 0.0007 to 22.7 µM; read-out: IC50 Mammalian Mitochondrial CII–III.

For the molecule `N=C1Sc2cc(-c3cccc([N+](=O)[O-])c3)ccc2C2=NCCCN12` [Compound 21], the EC50 at 48 h in data set [1] and in data set [2] was greater than 10 µM throughout. Moreover, the IC50 in data set [3] and in data set [5] was greater than 22.7 µM throughout. The EC50 with P. falciparum 3D7 amounted to 0.85 ± 0.12 µM. Further, the activity at 10 µM in data set [4] was found to be 103 ± 0.67%. Besides, the “susceptibility of Pf3D7-yDHODH parasite (in words)” value (“susceptibility” for short) in data set [4] is listed as “reduced susceptibility”.
With `CC(C)Oc1cccc(-c2ccc3c(c2)SC(=N)N2CCCN=C32)c1` [Compound 22], the EC50 at 48 h in data set [1] and in data set [2] was greater than 10 µM in each case. In addition, the IC50 in data set [3] and in data set [5] was greater than 22.7 µM each time. Also, the EC50 in the data set on P. falciparum 3D7 was 0.9 ± 0.44 µM. Besides, in data set [4], the activity at 10 µM is -0.06 ± 0.24%.
In the case of `CCc1cccc(-c2ccc3c(c2)SC(=N)N2CCCN=C32)c1` [Compound 25], the EC50 at 48 h in data set [1] and in data set [2] was greater than 10 µM throughout. Moreover, the IC50 in data set [3] and in data set [5] was greater than 22.7 µM throughout. Besides, the concentration for a half-maximal effect (EC50) in the data set on P. falciparum 3D7 was 1.77 ± 0.83 µM. Further, the activity at 10 µM in data set [4] worked out at 0.01 ± 0.15%.
On to `N=C1Sc2cc(-c3ccccc3-c3ccccc3)ccc2C2=NCCCN12` [Compound 27], for which the EC50 at 48 h in data set [1] and in data set [2] was greater than 10 µM throughout. The IC50 in data set [3] and in data set [5] was greater than 22.7 µM throughout. The EC50 in the data set on P. falciparum 3D7 turned out to be 0.39 ± 0.05 µM. Besides, the activity at 10 µM in data set [4] amounted to 0.25 ± 0.04%.
With `c1ccc(-c2ccc3c(c2)SN2CCCN=C32)cc1` [Compound 30], the EC50 at 48 h in data set [1] and in data set [2] was greater than 10 µM throughout. Moreover, the IC50 in data set [3] and in data set [5] was greater than 22.7 µM each time. Besides, in the data set with P. falciparum 3D7, the EC50 is 9.67 ± 5.09 µM. Moreover, the activity at 10 µM in data set [4] was determined as 63.6 ± 5.87%. Besides, the “susceptibility” value in data set [4] is “reduced susceptibility”.
For the molecule `c1ccc2c(-c3ccc4c(c3)SN3CCCN=C43)cccc2c1` [Compound 31], the EC50 at 48 h in data set [1] and in data set [2] was greater than 10 µM each time. Further, the IC50 in data set [3] and in data set [5] was greater than 22.7 µM each time. In addition, the EC50 in the data set with P. falciparum 3D7 came to 0.33 ± 0.01 µM. Also, in data set [4], the activity at 10 µM amounted to 0%.
In the case of `c1cc2c(cc1-c1ccc3c(c1)SN1CCCN=C31)OCO2` [Compound 32], the EC50 at 48 h in data set [1] and in data set [2] was greater than 10 µM throughout. For the same molecule, the IC50 in data set [3] and in data set [5] was greater than 22.7 µM each time. The EC50 with P. falciparum 3D7 amounted to 1.85 ± 0.53 µM. Also, the activity at 10 µM in data set [4] was 0.11 ± 0.03%.
As for `c1ccc(-c2ccc3c(c2)C2=NCCCN2S3)cc1` [Compound 36], the half-maximal effective concentration (EC50) at 48 h in data set [1] is 8.38 µM; in data set [2], greater than 10 µM. In addition, the IC50 in data set [3] and in data set [5] was greater than 22.7 µM each time. Moreover, the EC50 in the data set with P. falciparum 3D7 was found to be 4.16 ± 0.09 µM. Further, the activity at 10 µM in data set [4] was found to be 32.5 ± 10.1%.
Consider `COC(=O)c1ccc(-c2ccc3c(c2)SN2CCCN=C32)cc1` [Compound 37], for which the EC50 at 48 h is 8.43 µM in data set [1] and greater than 10 µM in data set [2]. For the same molecule, the IC50 in data set [3] and in data set [5] was greater than 22.7 µM each time. Moreover, the EC50 in the data set with P. falciparum 3D7 stood at 2.78 ± 0.27 µM. The activity at 10 µM in data set [4] is -0.18 ± 0.05%.
With `O=[N+]([O-])c1ccc(-c2ccc3c(c2)SN2CCCN=C32)cc1` [Compound 39], the EC50 at 48 h in data set [1] and in data set [2] was greater than 10 µM throughout. The IC50 in data set [3] and in data set [5] was greater than 22.7 µM throughout. Also, the EC50 with P. falciparum 3D7 came to 1.14 ± 0.06 µM. Moreover, the activity at 10 µM in data set [4] came to 1.48 ± 0.14%.
Consider `COC(=O)c1cccc(-c2ccc3c(c2)SN2CCCN=C32)c1` [Compound 40], for which the EC50 at 48 h was 9.16 µM in data set [1] and greater than 10 µM in data set [2]. Besides, the IC50 in data set [3] and in data set [5] was greater than 22.7 µM throughout. Further, the EC50 in the data set with P. falciparum 3D7 stood at 1.72 ± 0.48 µM. In data set [4], the activity at 10 µM was -0.09 ± 0.08%.
In the case of `COc1ccccc1-c1ccc2c(c1)SN1CCCN=C21` [Compound 42], the EC50 at 48 h in data set [1] was 9.77 µM; in data set [2], greater than 10 µM. In addition, the IC50 in data set [3] and in data set [5] was greater than 22.7 µM each time. In the data set with P. falciparum 3D7, the EC50 is 0.54 ± 0.22 µM. Further, the activity at 10 µM in data set [4] is 0.04 ± 0.15%.
Regarding `O=[N+]([O-])c1ccccc1-c1ccc2c(c1)SN1CCCN=C21` [Compound 43], the figures for the EC50 at 48 h in data set [1] and in data set [2] were 9.44 µM and greater than 10 µM, respectively. Besides, the IC50 in data set [3] and in data set [5] was greater than 22.7 µM each time. Further, in the data set with P. falciparum 3D7, the EC50 came to 1.11 ± 0.08 µM. For the same molecule, the activity at 10 µM in data set [4] is 31.1 ± 2.38%. Further, the “susceptibility” value in data set [4] is given as “reduced susceptibility”.
